Data reported in PubChem BioAssay (NCI).
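Growth conditions: 96-well plates. Treatment: test compound, 48 hours, 5 concentrations. Analysis: linear interpolation between bracketing concentrations; unreached endpoints set to highest concentration. GI50: concentration for 50% inhibition of growth. At the TGI there is no net growth.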

Experiments:
Assay in all cases: NCI tumour cell line growth inhibition, 48 h
[1] = system: SNB-78 CNS
[2] = system: DMS 273 small cell lung
[3] = system: XF 498 CNS
[4] = system: HOP-18 NSCLC
[5] = system: LXFL 529 NSCLC
[6] = system: DMS 114 small cell lung
[7] = system: M19-MEL melanoma
[8] = system: RXF-631 renal
[9] = system: P388 leukemia
[10] = system: P388/ADR leukemia
[11] = system: SN12K1 renal

For `O=c1cccccc1[O-].O=c1cccccc1[O-].[O]=[U+2]=[O]`, the GI50 [1] was 28.7 µM, the TGI [1] was 67.6 µM and the GI50 [2] was 22.6 µM. For the same compound, the TGI [2] was 58.3 µM, the GI50 [3] was 25.7 µM and the TGI [3] was 47.3 µM. For the same compound, the GI50 [4] was 41 µM, the TGI [4] was 97 µM and the GI50 [5] was 28.6 µM. It also gave a TGI [5] of 82.6 µM.
`O=C(OCN1C(=O)C2C3C=CC(C2C1=O)C1C2C(=O)N(COC(=O)C4CCCN4)C(=O)C2C31)C1CCCN1` (stereo not drawn) gave a TGI [1] greater than 100 µM, a TGI [6] greater than 60.6 µM and a TGI [7] greater than 100 µM. The TGI [2] was greater than 56.4 µM, the TGI [8] was greater than 100 µM and the TGI [3] was greater than 100 µM. The TGI [4] was greater than 100 µM and the TGI [5] was greater than 100 µM.
Work on `CNC(=O)OCc1c(CO)nc(SC)n1C` yielded a TGI [9] greater than 100 µM, a TGI [10] greater than 100 µM and a TGI [11] greater than 100 µM. It also gave a TGI [6] greater than 100 µM, a TGI [7] greater than 100 µM and a TGI [2] greater than 100 µM. For the same compound, the TGI [3] was greater than 100 µM and the TGI [4] was greater than 100 µM.
Work on `COc1cc2c(ccc3c4cc(OC)c(OC)cc4c[n+](C)c23)cc1O` yielded a TGI [1] greater than 75 µM, a TGI [9] of 5.21 µM and a TGI [10] greater than 75 µM. For the same compound, the TGI [11] was 14 µM, the TGI [6] was 74.7 µM and the TGI [7] was greater than 75 µM. It also gave a TGI [2] greater than 75 µM, a TGI [3] of 19.2 µM and a TGI [4] greater than 75 µM.
With `CCCCCCCCC/C=C/C=C/C(=O)NCC(=O)NC1C(O)C(O)C(Nc2ncnc3nc[nH]c23)OC1C(O)CO` (stereo not drawn) the TGI [6] was greater than 100 µM, the TGI [7] was 0.0253 µM and the GI50 [5] was 0.0467 µM.
